US20110152090A1, “HERBICIDAL COMPOSITIONS COMPRISING FLUFENACET” (Bayer CropScience AG, priority 2009, published 2011)

Experiments:
Assay type in all cases: in vivo
[1] = test system: POAAN (Poa annua); assay: Greenhouse trial: PE soil application vs incorporation into the soil (test methods 1, 3); conditions: g of AS/ha: (A) 90, (B) 1200, (C) 90, (D) 300
Experimental: (§1) In the standard design of the test, seeds of various broad-leaved weed and weed grass biotypes (origins) were sown in a 8-13 cm diameter pot filled with natural soil of a standard field soil (loamy silt; non-sterile) and covered with a covering soil layer of about 1 cm. The pots were then cultivated in a greenhouse (12-16 h of light, temperature day 20-22° C., night 15-18° C.) until the time of application. The pots were treated on a laboratory track sprayer with spray liquors comprising the compositions according to the invention, mixtures of the prior art or components used individually. Application of the active compounds or active compound combinations formulated as WG, WP, EC or otherwise was carried out at the appropriate growth stages of the plants. The application rate for the spray application was 100-600 l of water/ha. After the treatment, the plants were returned to the greenhouses.
(§2) About 3 weeks after the application, the soil action or/and foliar action was assessed visually according to a scale of 0-100% in comparison to an untreated comparative group: 0%=no noticeable effect compared to the untreated comparative group; 100%=full effect compared to the untreated comparative group.
(§3) (notes: the term “seeds” also includes vegetative propagation forms such as, for example, rhizome pieces; abbreviations used: h light=hours of illumination, g of AS/ha=gram of active substance per hectare, l/ha=liter per hectare, S=sensitive, R=resistant) • 1. Pre-emergence action against weeds: seeds of various broad-leaved weed and weed grass biotypes (origins) were sown in a 8-13 cm diameter pot filled with natural soil of a standard field soil (loamy silt; non-sterile) and covered with a covering soil layer of about 1 cm. The pots were then cultivated in a greenhouse (12-16 h of light, temperature day 20-22° C., night 15-18° C.) until the time of application. The pots were treated at the BBCH stage 00-10 of the seeds/plants on a laboratory track sprayer with spray liquors comprising the compositions according to the invention, mixtures or components used individually, as WG, WP, EC or other formulations. The application rate for the spray application was 100-600 l of water/ha. After the treatment, the plants were returned to the greenhouses and, when required, treated with fertilizer and watered. • 2. Post-emergence action against weeds: seeds of various broad-leaved weed and weed grass biotypes (origins) were sown in a 8-13 cm diameter pot filled with natural soil of a standard field soil (loamy silt; non-sterile) and covered with a covering soil layer of about 1 cm. The pots were then cultivated in a greenhouse (12-16 h of light, temperature day 20-22° C., night 15-18° C.) until the time of application. The pots were treated at various BBCH stages between 11-25 of the seeds/plants, i.e. generally between two to three weeks after the start of the cultivation, on a laboratory track sprayer with spray liquors comprising the compositions according to the invention, mixtures or components used individually, as WG, WP, EC or other formulations. The application rate for the spray application was 100-600 l of water/ha. After the treatment, the plants were returned to the greenhouses and, when required, treated with fertilizer and watered. • 3. Pre-emergence action against weeds with and without incorporation of active compound: seeds of various broad-leaved weed and weed grass biotypes (origins) were sown in a 8-13 cm diameter pot filled with natural soil of a standard field soil (loamy silt; non-sterile). […]

[2] = test system: STEME (Stellaria media); assay: as above; conditions: g of AS/ha: (A) 90, (B) 1200, (C) 90, (D) 300
Experimental: as §1, §2, §3

[3] = test system: APESV (Apera Spica-venti); assay: Greenhouse trial: PO application (test method 2); conditions: g of AS/ha: (A) 120, (B) 1600, (C) 120
Experimental: as §1, §2, §3

[4] = test system: POAAN (Poa annua); assay: Greenhouse trial: PO application (test method 2); conditions: g of AS/ha: (A) 120, (B) 1600, (C) 120
Experimental: as §1, §2, §3

[5] = test system: STEME (Stellaria media); assay: Greenhouse trial: PO application (test method 2); conditions: g of AS/ha: (A) 120, (B) 1600, (C) 120
Experimental: as §1, §2, §3

[6] = test system: HORVS (Hordeum vulgare, summer barley); assay: Greenhouse trial: selective PO action (test method 5); conditions: Hordeum vulgare (summer barley), in vivo, po
Experimental: as §1, §2
(§4) (notes: the term “seeds” also includes vegetative propagation forms such as, for example, rhizome pieces; abbreviations used: h light=hours of illumination, g of AS/ha=gram of active substance per hectare, l/ha=liter per hectare, S=sensitive, R=resistant) • 1. Pre-emergence action against weeds: seeds of various broad-leaved weed and weed grass biotypes (origins) were sown in a 8-13 cm diameter pot filled with natural soil of a standard field soil (loamy silt; non-sterile) and covered with a covering soil layer of about 1 cm. The pots were then cultivated in a greenhouse (12-16 h of light, temperature day 20-22° C., night 15-18° C.) until the time of application. […]

[7] = test system: AVEFA (Avena fatua); assay: Greenhouse trial: pre-sowing application vs PE application (test method 6)
Experimental: as §1, §2, §3

[8] = test system: LOLPE (Lolium perenne); assay: as above
Experimental: as §1, §2, §3

[9] = test system: HORVS (Hordeum vulgare, summer barley); assay: Greenhouse trial: pre-sowing application vs PE application (test method 6), crop, PE part; conditions: Hordeum vulgare (summer barley), in vivo
Experimental: as §1, §2, §4

[10] = test system: TRZAS (Triticum aestivum, summer wheat); assay: Greenhouse trial: pre-sowing application vs PE application (test method 6), crop, pre-sowing part; conditions: Triticum aestivum (summer wheat), in vivo
Experimental: as §1, §2, §4

[11] = test system: AVEFA (Avena fatua); assay: Greenhouse trial: different irrigation systems (test method 7); conditions: g of AS/ha: (A) 120, (B) 1200, (C) 90
Experimental: as §1, §2, §3

[12] = test system: LOLPE (Lolium perenne); assay: as above; conditions: g of AS/ha: (A) 120, (B) 1200, (C) 90
Experimental: as §1, §2, §3

[13] = test system: MATCH (Matricaria chamomilla); assay: as above; conditions: g of AS/ha: (A) 120, (B) 1200, (C) 90
Experimental: as §1, §2, §3

[14] = test system: LOLPE (Lolium perenne); assay: Greenhouse trial: different soil types (test method 8); conditions: g of AS/ha: (A) 120, (B) 1200, (C) 90
Experimental: as §1, §2, §3

[15] = test system: MATCH (Matricaria chamomilla); assay: as above; conditions: g of AS/ha: (A) 120, (B) 1200, (C) 90; for Difference of the soil types, MATCH: IU/EC73 soil vs IU soil
Experimental: as §1, §2, §3

[16] = test system: HORVS (Hordeum vulgare, summer barley); assay: Greenhouse trial: different soil types (test method 8), crop; conditions: Hordeum vulgare (summer barley), in vivo
Experimental: as §1, §2, §3

[17] = test system: LOLSS (Lolium species), sensitive and resistant; assay: Greenhouse trial: resistant biotypes, PE application (test method 9); conditions: g of AS/ha: (A) 90, (B) 1200, (C) 90, iodosulfuron 10; for activity LOLSS resistant (visual scale 0-100%): resistant biotype; for activity LOLSS sensitive (visual scale 0-100%): sensitive biotype
Experimental: as §1, §2, §3

[18] = test system: MATCH (Matricaria chamomilla), sensitive and resistant; assay: as above; conditions: g of AS/ha: (A) 90, (B) 1200, (C) 90, iodosulfuron 10; for activity MATCH resistant (visual scale 0-100%): resistant biotype; for activity MATCH sensitive (visual scale 0-100%): sensitive biotype
Experimental: as §1, §2, §3

[19] = test system: STEME (Stellaria media), sensitive and resistant; assay: as above; conditions: g of AS/ha: (A) 90, (B) 1200, (C) 90, iodosulfuron 10; for activity STEME resistant (visual scale 0-100%): resistant biotype; for activity STEME sensitive (visual scale 0-100%): sensitive biotype
Experimental: as §1, §2, §3

[20] = test system: APESV (Apera Spica-venti); assay: Greenhouse trial: different sowing depths, PE application (test method 10); conditions: g of AS/ha: (A) 90, (B) 1200, (C) 90; for activity APESV 5 mm (visual scale 0-100%): sowing depth 5 mm; for activity APESV 20 mm (visual scale 0-100%): sowing depth 20 mm
Experimental: as §1, §2, §3

[21] = test system: MATCH (Matricaria chamomilla); assay: as above; conditions: g of AS/ha: (A) 90, (B) 1200, (C) 90; for activity MATCH 5 mm (visual scale 0-100%): sowing depth 5 mm; for activity MATCH 20 mm (visual scale 0-100%): sowing depth 20 mm
Experimental: as §1, §2, §3

[22] = PE application, g of AS/ha: (A) 90, (B) 1200, (C) 90
[23] = application 7 days prior to sowing, g AS/ha: (A) 90, (B) 1200, (C) 90

Structure (SMILES) | activity POAAN (visual scale 0-100%) ([1]; PE application) [%] | activity STEME (visual scale 0-100%) ([2]; PE application) [%] | activity STEME (visual scale 0-100%) ([2]; incorporation into the soil) [%] | activity APESV (visual scale 0-100%) [3] [%] | activity POAAN (visual scale 0-100%) [4] [%] | activity STEME (visual scale 0-100%) [5] [%] | activity on crop HORVS (visual scale 0-100%) [6] [%] | activity AVEFA (visual scale 0-100%) [7, 22] [%] | activity AVEFA (visual scale 0-100%) [7, 23] [%] | activity LOLPE (visual scale 0-100%) [8, 22] [%] | activity LOLPE (visual scale 0-100%) [8, 23] [%] | activity on crop HORVS (visual scale 0-100%) [9] [%] | activity on crop TRZAS (visual scale 0-100%) [10] [%] | activity AVEFA (visual scale 0-100%) ([11]; irrigation from above) [%] | activity LOLSS resistant (visual scale 0-100%) [17] [%] | activity LOLSS sensitive (visual scale 0-100%) [17] [%] | activity MATCH resistant (visual scale 0-100%) [18] [%] | activity MATCH sensitive (visual scale 0-100%) [18] [%] | activity STEME resistant (visual scale 0-100%) [19] [%] | activity STEME sensitive (visual scale 0-100%) [19] [%] | further results
CCCN(CCC)C(=O)SCc1ccccc1 [(B) prosulfocarb, S-(phenylmethyl) dipropylcarbamothioate] | 35 | 30 | 65 | 20 | 30 | 30 | 30 | 10 | 10 | 5 | 0 | 15 | 20 | 5 | 65 | 85 | 25 | 0 | 40 | 70 | activity AVEFA (visual scale 0-100%) ([11]; irrigation from below): 10%; activity LOLPE (visual scale 0-100%) ([12]; irrigation from above): 10%; activity LOLPE (visual scale 0-100%) ([12]; irrigation from below): 5%; activity MATCH (visual scale 0-100%) ([13]; irrigation from above): 0%; activity MATCH (visual scale 0-100%) ([13]; irrigation from below): 0%; activity LOLPE IU soil (visual scale 0-100%) [14]: 33%; activity LOLPE IU/EC73 soil (visual scale 0-100%) [14]: 0%; activity MATCH IU soil (visual scale 0-100%) [15]: 10%; Difference of the soil types, MATCH [15]: −10%; activity MATCH IU/EC73 soil (visual scale 0-100%) [15]: 0%; Difference Δ^D of the soil types, HORVS [16]: Δ^D + 3%; activity on crop HORVS IU soil (visual scale 0-100%) [16]: 0%; activity on crop HORVS IU/EC73 soil (visual scale 0-100%) [16]: 3%; activity APESV 5 mm (visual scale 0-100%) [20]: 50%; activity APESV 20 mm (visual scale 0-100%) [20]: 20%; activity MATCH 5 mm (visual scale 0-100%) [21]: 0%; activity MATCH 20 mm (visual scale 0-100%) [21]: 0%
CC(C)N(C(=O)COc1nnc(C(F)(F)F)s1)c1ccc(F)cc1 [(A) flufenacet, N-(4-fluorophenyl)-N-(1-methylethyl)-2-[[5-(trifluoromethyl)-1,3,4-thiadiazol-2-yl]oxy]acetamide] | 70 | 0 | 20 | 60 | 60 | 30 | 40 | 63 | 70 | 75 | 80 | 80 | 40 | 85 | 10 | 85 | 30 | 30 | 0 | 0 | activity POAAN (visual scale 0-100%) ([1]; incorporation into the soil): 100%; activity AVEFA (visual scale 0-100%) ([11]; irrigation from below): 50%; activity LOLPE (visual scale 0-100%) ([12]; irrigation from above): 80%; activity LOLPE (visual scale 0-100%) ([12]; irrigation from below): 78%; activity MATCH (visual scale 0-100%) ([13]; irrigation from above): 49%; activity MATCH (visual scale 0-100%) ([13]; irrigation from below): 35%; activity LOLPE IU soil (visual scale 0-100%) [14]: 97%; activity LOLPE IU/EC73 soil (visual scale 0-100%) [14]: 75%; activity MATCH IU soil (visual scale 0-100%) [15]: 80%; Difference of the soil types, MATCH [15]: −75%; activity MATCH IU/EC73 soil (visual scale 0-100%) [15]: 5%; Difference Δ^D of the soil types, HORVS [16]: Δ^D − 10%; activity on crop HORVS IU soil (visual scale 0-100%) [16]: 10%; activity on crop HORVS IU/EC73 soil (visual scale 0-100%) [16]: 0%; activity APESV 5 mm (visual scale 0-100%) [20]: 65%; activity APESV 20 mm (visual scale 0-100%) [20]: 70%; activity MATCH 5 mm (visual scale 0-100%) [21]: 30%; activity MATCH 20 mm (visual scale 0-100%) [21]: 30%
COc1nc(C)nc(NC(=O)NS(=O)(=O)c2cc(I)ccc2C(=O)O)n1 [iodosulfuron] | – | – | – | – | – | – | – | – | – | – | – | – | – | – | 50 | 98 | 60 | 100 | 40 | 90 | –
